Test results published in ChEMBL document CHEMBL3585282, “Discovery of Highly Isoform Selective Thiazolopiperidine Inhibitors of Phosphoinositide 3-Kinase γ” (J Med Chem, 2015).
Values after ≈ are worked out from the molar mass of the structure shown.

Key:
[1] = Thermodynamic solubility in FaSSIF at pH 6.5 at 5 mg incubated for 48 hrs by HPLC method; format: physicochemical; conditions: read-out: Therm_solubility
[2] = Thermodynamic solubility in water at 5 mg incubated for 48 hrs by HPLC method; format: physicochemical; conditions: read-out: Therm_solubility
[3] = Stability in human liver microsomes assessed as compound remaining at 5 uM in presence of NADPH after 30 mins by LC-MS/MS method; format: ADME; conditions: read-out: Stability
[4] = Stability in rat liver microsomes assessed as compound remaining at 5 uM in presence of NADPH after 30 mins by LC-MS/MS method; format: ADME; conditions: read-out: Stability
[5] = Stability in dog liver microsomes assessed as compound remaining at 5 uM in presence of NADPH after 30 mins by LC-MS/MS method; format: ADME, Canis lupus familiaris; conditions: read-out: Stability

Row | solubility thermodynamic at 48 h [1] [µg/mL] | solubility thermodynamic at 48 h [2] [µg/mL] | remaining at 0.5 h, 5 µM [3] [%] | remaining at 0.5 h, 5 µM [4] [%] | remaining at 0.5 h, 5 µM [5] [%] | Structure (SMILES)
1 | 9.4 (≈ 30.9 µM) | 12.1 (≈ 39.8 µM) |  |  |  | COc1cncc(N2CCc3nc(NC(C)=O)sc3C2)c1
2 |  |  | 61 | 100 | 84 | COc1cc(N2CCc3nc(NC(=O)NCCc4cn(CC(F)F)cn4)sc3C2)cnc1Cl
